Assay results from the NIST ThermoML archive (doi:10.1021/acs.jced.7b00227).
Numbers after ± are expanded uncertainties.

Assays:
[1] = for Normal melting temperature: DTA
[2] = Molar enthalpy of transition or fusion; conditions: Crystal; DSC

O=Cc1cccc(O)c1 [3-hydroxybenzaldehyde]
[1]
Conditions | vapor or sublimation pressure [kPa]
309.13 K, Crystal, Calculated from knudsen effusion weight loss | 8.9e-05 ± 2e-05
311.29 K, Crystal, Calculated from knudsen effusion weight loss | 0.000118 ± 2e-05
313.21 K, Crystal, Calculated from knudsen effusion weight loss | 0.00015 ± 2.1e-05
315.13 K, Crystal, Calculated from knudsen effusion weight loss | 0.000189 ± 2.1e-05
317.29 K, Crystal, Calculated from knudsen effusion weight loss | 0.000243 ± 2.2e-05
319.2 K, Crystal, Calculated from knudsen effusion weight loss | 0.000308 ± 2.3e-05
321.13 K, Crystal, Calculated from knudsen effusion weight loss | 0.00039 ± 2.4e-05
323.29 K, Crystal, Calculated from knudsen effusion weight loss | 0.00049 ± 2.6e-05
324.86 K, Crystal, Closed cell (Static) method | 0.00061 ± 0.00011
325.23 K, Crystal, Calculated from knudsen effusion weight loss | 0.000616 ± 3e-05
326.85 K, Crystal, Closed cell (Static) method | 0.00076 ± 0.00012
327.14 K, Crystal, Calculated from knudsen effusion weight loss | 0.000763 ± 3.4e-05
328.83 K, Crystal, Closed cell (Static) method | 0.00094 ± 0.00012
329.29 K, Crystal, Calculated from knudsen effusion weight loss | 0.000957 ± 3.9e-05
330.84 K, Crystal, Closed cell (Static) method | 0.00116 ± 0.00012
331.22 K, Crystal, Calculated from knudsen effusion weight loss | 0.001188 ± 9.6e-05
332.78 K, Crystal, Closed cell (Static) method | 0.00142 ± 0.00013
334.76 K, Crystal, Closed cell (Static) method | 0.00176 ± 0.00013
336.76 K, Crystal, Closed cell (Static) method | 0.00219 ± 0.00014
338.72 K, Crystal, Closed cell (Static) method | 0.00269 ± 0.00016
340.73 K, Crystal, Closed cell (Static) method | 0.00336 ± 0.00018
342.63 K, Crystal, Closed cell (Static) method | 0.00405 ± 0.0002
344.71 K, Crystal, Closed cell (Static) method | 0.00495 ± 0.00023
346.64 K, Crystal, Closed cell (Static) method | 0.006 ± 0.00026
348.61 K, Crystal, Closed cell (Static) method | 0.00733 ± 0.00031
350.55 K, Crystal, Closed cell (Static) method | 0.00897 ± 0.00037
352.54 K, Crystal, Closed cell (Static) method | 0.01085 ± 0.00044
354.49 K, Crystal, Closed cell (Static) method | 0.01289 ± 0.00052
356.45 K, Crystal, Closed cell (Static) method | 0.01575 ± 0.00056
358.45 K, Crystal, Closed cell (Static) method | 0.01898 ± 0.00061
360.41 K, Crystal, Closed cell (Static) method | 0.02275 ± 0.00067
362.4 K, Crystal, Closed cell (Static) method | 0.02727 ± 0.00074
364.34 K, Crystal, Closed cell (Static) method | 0.03226 ± 0.00081
366.32 K, Crystal, Closed cell (Static) method | 0.03884 ± 0.00091
368.21 K, Crystal, Closed cell (Static) method | 0.04637 ± 0.001
368.31 K, Metastable liquid, Closed cell (Static) method | 0.05807 ± 0.0012
370.35 K, Metastable liquid, Closed cell (Static) method | 0.06605 ± 0.0013
372.25 K, Metastable liquid, Closed cell (Static) method | 0.07435 ± 0.0015
374.24 K, Metastable liquid, Closed cell (Static) method | 0.08475 ± 0.0016
376.14 K, Metastable liquid, Closed cell (Static) method | 0.09434 ± 0.0018
378.15 K, Closed cell (Static) method, Liquid | 0.1083 ± 0.002
380.15 K, Closed cell (Static) method, Liquid | 0.1217 ± 0.0022
382.09 K, Closed cell (Static) method, Liquid | 0.1367 ± 0.0021
384.06 K, Closed cell (Static) method, Liquid | 0.1536 ± 0.0022
386.07 K, Closed cell (Static) method, Liquid | 0.1727 ± 0.0024
388 K, Closed cell (Static) method, Liquid | 0.1931 ± 0.0026
389.95 K, Closed cell (Static) method, Liquid | 0.2148 ± 0.0028
391.96 K, Closed cell (Static) method, Liquid | 0.2415 ± 0.003
395.88 K, Closed cell (Static) method, Liquid | 0.3002 ± 0.0035
399.75 K, Closed cell (Static) method, Liquid | 0.3687 ± 0.0041
403.71 K, Closed cell (Static) method, Liquid | 0.454 ± 0.0048
405.31 K, Closed cell (Static) method, Liquid | 0.49 ± 0.0052
407.66 K, Closed cell (Static) method, Liquid | 0.5539 ± 0.0057
409.61 K, Closed cell (Static) method, Liquid | 0.618 ± 0.0063
411.6 K, Closed cell (Static) method, Liquid | 0.6754 ± 0.0068
413.56 K, Closed cell (Static) method, Liquid | 0.751 ± 0.0074
415.52 K, Closed cell (Static) method, Liquid | 0.814 ± 0.008
417.46 K, Closed cell (Static) method, Liquid | 0.902 ± 0.0087
419.41 K, Closed cell (Static) method, Liquid | 0.994 ± 0.01

Conditions | Normal melting temperature [°C]
[1], Crystal | 104.5 ± 0.5

Conditions | Molar enthalpy of transition or fusion [kcal/mol]
[2] | 6.12 ± 0.239

O=Cc1ccccc1O [2-hydroxybenzaldehyde]
[1]
Conditions | vapor or sublimation pressure [kPa]
264.55 K, Crystal, Closed cell (Static) method | 0.00232 ± 0.00013
266.52 K, Crystal, Closed cell (Static) method | 0.00319 ± 0.00016
266.54 K, Metastable liquid, Closed cell (Static) method | 0.00505 ± 0.0003
268.49 K, Crystal, Closed cell (Static) method | 0.00453 ± 0.0002
268.5 K, Metastable liquid, Closed cell (Static) method | 0.00606 ± 0.00034
270.45 K, Crystal, Closed cell (Static) method | 0.00599 ± 0.00025
270.45 K, Metastable liquid, Closed cell (Static) method | 0.00727 ± 0.00037
272.44 K, Metastable liquid, Closed cell (Static) method | 0.00884 ± 0.00041
274.4 K, Closed cell (Static) method, Liquid | 0.01038 ± 0.00046
276.37 K, Closed cell (Static) method, Liquid | 0.01235 ± 0.00052
278.29 K, Closed cell (Static) method, Liquid | 0.01469 ± 0.00057
280.27 K, Closed cell (Static) method, Liquid | 0.01734 ± 0.0006
282.24 K, Closed cell (Static) method, Liquid | 0.02049 ± 0.00065
284.23 K, Closed cell (Static) method, Liquid | 0.02411 ± 0.0007
286.21 K, Closed cell (Static) method, Liquid | 0.02842 ± 0.00077
288.16 K, Closed cell (Static) method, Liquid | 0.03343 ± 0.00084
290.13 K, Closed cell (Static) method, Liquid | 0.03878 ± 0.00092
292.14 K, Closed cell (Static) method, Liquid | 0.0453 ± 0.001
294.09 K, Closed cell (Static) method, Liquid | 0.05232 ± 0.0011
296 K, Closed cell (Static) method, Liquid | 0.06145 ± 0.0013
298.06 K, Closed cell (Static) method, Liquid | 0.0702 ± 0.0014
300.04 K, Closed cell (Static) method, Liquid | 0.08175 ± 0.0016
302.02 K, Closed cell (Static) method, Liquid | 0.09355 ± 0.0018
304.24 K, Closed cell (Static) method, Liquid | 0.1075 ± 0.002
305.97 K, Closed cell (Static) method, Liquid | 0.1228 ± 0.0022
307.92 K, Closed cell (Static) method, Liquid | 0.1409 ± 0.0021
309.88 K, Closed cell (Static) method, Liquid | 0.1603 ± 0.0023
311.9 K, Closed cell (Static) method, Liquid | 0.1832 ± 0.0025
313.81 K, Closed cell (Static) method, Liquid | 0.2071 ± 0.0027
315.78 K, Closed cell (Static) method, Liquid | 0.2358 ± 0.0029
317.77 K, Closed cell (Static) method, Liquid | 0.2661 ± 0.0032
319.78 K, Closed cell (Static) method, Liquid | 0.3014 ± 0.0035
321.96 K, Closed cell (Static) method, Liquid | 0.3441 ± 0.0039
323.95 K, Closed cell (Static) method, Liquid | 0.3875 ± 0.0043
325.91 K, Closed cell (Static) method, Liquid | 0.4352 ± 0.0047
327.88 K, Closed cell (Static) method, Liquid | 0.4884 ± 0.0051
329.84 K, Closed cell (Static) method, Liquid | 0.5465 ± 0.0057
331.84 K, Closed cell (Static) method, Liquid | 0.611 ± 0.0062
333.81 K, Closed cell (Static) method, Liquid | 0.682 ± 0.0068
335.78 K, Closed cell (Static) method, Liquid | 0.7604 ± 0.0075
337.76 K, Closed cell (Static) method, Liquid | 0.846 ± 0.0083
339.74 K, Closed cell (Static) method, Liquid | 0.9402 ± 0.0091
341.67 K, Closed cell (Static) method, Liquid | 1.042 ± 0.01

Conditions | Normal melting temperature [°C]
[1], Crystal | -0.8 ± 0.5

Conditions | Molar enthalpy of transition or fusion [kcal/mol]
[2] | 3.18 ± 0.215
